Experimental data taken from ChEMBL document CHEMBL1201862, “PubChem BioAssay data set” (2004).
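The compound was tested at five concentrations on cells cultured in 96-well plates, with a 48-hour exposure period. At the GI50, growth is halved.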 Calls of active or inactive are those of the source. No stated cut-off is given here; in the data, active = GI50 up to about 1.1 µM and inactive = higher.

How the values were obtained:
Assay in all cases: NCI-60 cell line screen, 48 h
NCI-H23 = system: NCI-H23
EKVX = system: EKVX
KM12 = system: KM12
RPMI-8226 = system: RPMI-8226
MOLT-4 = system: MOLT-4
CCRF-CEM = system: CCRF-CEM
IGROV-1 = system: IGROV-1
NCI-H460 = system: NCI-H460
Malme-3M = system: Malme-3M
SK-MEL-28 = system: SK-MEL-28
K562 = system: K562
OVCAR-8 = system: OVCAR-8
HCT-15 = system: HCT-15
HCC 2998 = system: HCC 2998
U-251 = system: U-251
SW-620 = system: SW-620
SF-268 = system: SF-268
SK-MEL-2 = system: SK-MEL-2
SK-OV-3 = system: SK-OV-3
SK-MEL-5 = system: SK-MEL-5

C#CC[N+](CCO)(CCO)CCCCCCCCCCCCCCCCCC
GI50 (NCI-H23): 13.8 µM (inactive)
GI50 (EKVX): 21.7 µM (inactive)
GI50 (KM12): 3.55 µM (inactive)
GI50 (RPMI-8226): 3.27 µM (inactive)
GI50 (MOLT-4): 2.91 µM (inactive)
GI50 (CCRF-CEM): 2.03 µM (inactive)
GI50 (IGROV-1): 2.18 µM (inactive)
GI50 (NCI-H460): 9.53 µM (inactive)
GI50 (Malme-3M): 18.4 µM (inactive)
GI50 (SK-MEL-28): 16.5 µM (inactive)
GI50 (K562): 5.24 µM (inactive)
GI50 (OVCAR-8): 16.1 µM (inactive)
GI50 (HCT-15): 15.3 µM
GI50 (HCC 2998): 11.5 µM (inactive)
GI50 (U-251): 6.47 µM (inactive)
GI50 (SW-620): 15.7 µM (inactive)
GI50 (SF-268): 8.69 µM (inactive)
GI50 (SK-MEL-2): 16.4 µM (inactive)
GI50 (SK-OV-3): 17.6 µM (inactive)
GI50 (SK-MEL-5): 15.7 µM (inactive)

CC(C)(C)OC(=O)NC1CCC(C(C)(C)C)CC1 (stereo not given)
GI50 (NCI-H23): > 83 µM (inactive)
GI50 (EKVX): > 64.1 µM (inactive)
GI50 (KM12): > 81.7 µM (inactive)
GI50 (RPMI-8226): 27.3 µM (inactive)
GI50 (MOLT-4): 23.9 µM (inactive)
GI50 (CCRF-CEM): 36.1 µM (inactive)
GI50 (IGROV-1): > 100 µM (inactive)
GI50 (NCI-H460): > 77.3 µM (inactive)
GI50 (Malme-3M): 33.2 µM (inactive)
GI50 (SK-MEL-28): > 100 µM (inactive)
GI50 (K562): 51.1 µM (inactive)
GI50 (OVCAR-8): > 89.7 µM (inactive)
GI50 (HCT-15): > 79.6 µM
GI50 (HCC 2998): > 87.1 µM (inactive)
GI50 (U-251): 38.4 µM (inactive)
GI50 (SW-620): > 64.3 µM (inactive)
GI50 (SF-268): > 100 µM (inactive)
GI50 (SK-MEL-2): 23.3 µM (inactive)
GI50 (SK-OV-3): > 100 µM (inactive)
GI50 (SK-MEL-5): 27.7 µM (inactive)

C=CCNC(=O)CN(CC(=O)OC)C1CCCCC1N(CC(=O)OC)CC(=O)OC (stereo not given)
GI50 (NCI-H23): > 100 µM (inactive)
GI50 (EKVX): > 100 µM (inactive)
GI50 (KM12): > 100 µM (inactive)
GI50 (RPMI-8226): > 100 µM (inactive)
GI50 (MOLT-4): > 100 µM (inactive)
GI50 (CCRF-CEM): > 100 µM (inactive)
GI50 (IGROV-1): > 100 µM (inactive)
GI50 (NCI-H460): > 100 µM (inactive)
GI50 (Malme-3M): > 100 µM (inactive)
GI50 (SK-MEL-28): > 100 µM (inactive)
GI50 (K562): > 100 µM (inactive)
GI50 (OVCAR-8): > 100 µM (inactive)
GI50 (HCT-15): > 100 µM
GI50 (HCC 2998): 70 µM (inactive)
GI50 (U-251): > 100 µM (inactive)
GI50 (SW-620): > 100 µM (inactive)
GI50 (SF-268): > 100 µM (inactive)
GI50 (SK-MEL-2): > 100 µM (inactive)
GI50 (SK-OV-3): > 100 µM (inactive)
GI50 (SK-MEL-5): > 100 µM (inactive)

O=C(Nc1cccc2ccccc12)Oc1ccccc1C1CCCCC1
GI50 (NCI-H23): 17.9 µM (inactive)
GI50 (EKVX): 22.6 µM (inactive)
GI50 (KM12): 20.2 µM (inactive)
GI50 (RPMI-8226): 30.3 µM (inactive)
GI50 (MOLT-4): 15.9 µM (inactive)
GI50 (CCRF-CEM): 15 µM (inactive)
GI50 (IGROV-1): 23 µM (inactive)
GI50 (NCI-H460): 18.5 µM (inactive)
GI50 (Malme-3M): 17.7 µM (inactive)
GI50 (SK-MEL-28): 22.6 µM (inactive)
GI50 (K562): 24.2 µM (inactive)
GI50 (OVCAR-8): 15.9 µM (inactive)
GI50 (HCT-15): 17.2 µM
GI50 (HCC 2998): 18.5 µM (inactive)
GI50 (U-251): 13.4 µM (inactive)
GI50 (SW-620): 20.6 µM (inactive)
GI50 (SF-268): 24.4 µM (inactive)
GI50 (SK-MEL-2): 18.2 µM (inactive)
GI50 (SK-OV-3): 30.8 µM (inactive)
GI50 (SK-MEL-5): 15.5 µM (inactive)

C=C1C(=O)OC2C=C(C)CC3C=C(CCC=C(C)CCC12)C(=O)O3 (stereo not given)
GI50 (NCI-H23): 49.3 µM (inactive)
GI50 (EKVX): 62.4 µM (inactive)
GI50 (KM12): 52.7 µM (inactive)
GI50 (RPMI-8226): 44.9 µM (inactive)
GI50 (MOLT-4): 54 µM (inactive)
GI50 (CCRF-CEM): 16.5 µM (inactive)
GI50 (IGROV-1): 48 µM (inactive)
GI50 (NCI-H460): 67.5 µM (inactive)
GI50 (Malme-3M): 46.1 µM (inactive)
GI50 (SK-MEL-28): 58.1 µM (inactive)
GI50 (K562): 55.8 µM (inactive)
GI50 (OVCAR-8): 72.3 µM (inactive)
GI50 (HCT-15): 56.6 µM
GI50 (HCC 2998): 58.7 µM (inactive)
GI50 (U-251): 65 µM (inactive)
GI50 (SW-620): 31 µM (inactive)
GI50 (SF-268): 61.8 µM (inactive)
GI50 (SK-MEL-2): 53.3 µM (inactive)
GI50 (SK-OV-3): 121 µM (inactive)
GI50 (SK-MEL-5): 67.9 µM (inactive)

C/C=C(\C)C(=O)OC1C2C(C)C(=O)OC2C(O)C(C)C2C=CC(=O)C21C (stereo not given)
GI50 (NCI-H23): 10.4 µM (inactive)
GI50 (EKVX): 11.7 µM (inactive)
GI50 (KM12): 11.1 µM (inactive)
GI50 (RPMI-8226): 4.61 µM (inactive)
GI50 (MOLT-4): 8.47 µM (inactive)
GI50 (CCRF-CEM): 3.06 µM (inactive)
GI50 (IGROV-1): 8.69 µM (inactive)
GI50 (NCI-H460): 4.49 µM (inactive)
GI50 (Malme-3M): 12.6 µM (inactive)
GI50 (SK-MEL-28): 14.1 µM (inactive)
GI50 (K562): 2.96 µM (inactive)
GI50 (OVCAR-8): 11.9 µM (inactive)
GI50 (HCT-15): 10.6 µM
GI50 (HCC 2998): 13.3 µM (inactive)
GI50 (U-251): 11.5 µM (inactive)
GI50 (SW-620): 14 µM (inactive)
GI50 (SF-268): 18.6 µM (inactive)
GI50 (SK-MEL-2): 17.8 µM (inactive)
GI50 (SK-OV-3): 16.6 µM (inactive)
GI50 (SK-MEL-5): 7.46 µM (inactive)

CC(=O)OC1C(O)C(C)OC(OC(=O)C2CCC3C(C2)OC2(CC(OC(=O)/C=C/c4ccccc4)C(C)CO2)C32CO2)C1OC1OC(C)C(O)C(O)C1O (stereo not given)
GI50 (NCI-H23): 0.0467 µM (active)
GI50 (EKVX): 0.0417 µM (active)
GI50 (KM12): 0.0371 µM (active)
GI50 (RPMI-8226): 0.0361 µM (active)
GI50 (MOLT-4): 0.0337 µM (active)
GI50 (CCRF-CEM): 0.0342 µM (active)
GI50 (IGROV-1): 0.0378 µM (active)
GI50 (NCI-H460): 0.0448 µM (active)
GI50 (Malme-3M): 0.0378 µM (active)
GI50 (SK-MEL-28): 0.0355 µM (active)
GI50 (K562): 0.0383 µM (active)
GI50 (OVCAR-8): 0.0789 µM (active)
GI50 (HCT-15): 3.96 µM
GI50 (HCC 2998): 0.0373 µM (active)
GI50 (U-251): 0.04 µM (active)
GI50 (SW-620): 0.0504 µM (active)
GI50 (SF-268): 0.0362 µM (active)
GI50 (SK-MEL-2): 0.0325 µM (active)
GI50 (SK-OV-3): 0.0586 µM (active)
GI50 (SK-MEL-5): 0.0332 µM (active)

C=C(CN(C)C)C(=O)c1ccc(OC2OC(COC(C)=O)C(OC(C)=O)C(OC(C)=O)C2OC(C)=O)cc1 (stereo not given)
GI50 (NCI-H23): 8.89 µM (inactive)
GI50 (EKVX): 11.8 µM (inactive)
GI50 (KM12): 17.6 µM (inactive)
GI50 (RPMI-8226): 2.88 µM (inactive)
GI50 (MOLT-4): 0.54 µM (active)
GI50 (CCRF-CEM): 0.185 µM (active)
GI50 (IGROV-1): 13.4 µM (inactive)
GI50 (NCI-H460): 20.1 µM (inactive)
GI50 (Malme-3M): 1.96 µM (inactive)
GI50 (SK-MEL-28): 2.52 µM (inactive)
GI50 (K562): 0.533 µM (active)
GI50 (OVCAR-8): 4.21 µM (inactive)
GI50 (HCT-15): 3.03 µM
GI50 (HCC 2998): 18.1 µM (inactive)
GI50 (U-251): 15.8 µM (inactive)
GI50 (SW-620): 0.678 µM (active)
GI50 (SF-268): 19.7 µM (inactive)
GI50 (SK-MEL-2): 10.3 µM (inactive)
GI50 (SK-OV-3): 19.4 µM (inactive)
GI50 (SK-MEL-5): 6.37 µM (inactive)

CC1OC(CO)(n2cnc3c(N)ncnc32)C(O)C1O (stereo not given)
GI50 (NCI-H23): > 100 µM (inactive)
GI50 (EKVX): > 100 µM (inactive)
GI50 (KM12): > 100 µM (inactive)
GI50 (RPMI-8226): > 100 µM (inactive)
GI50 (MOLT-4): > 100 µM (inactive)
GI50 (CCRF-CEM): > 100 µM (inactive)
GI50 (IGROV-1): > 100 µM (inactive)
GI50 (NCI-H460): > 100 µM (inactive)
GI50 (Malme-3M): > 100 µM (inactive)
GI50 (SK-MEL-28): > 100 µM (inactive)
GI50 (K562): > 100 µM (inactive)
GI50 (OVCAR-8): > 100 µM (inactive)
GI50 (HCT-15): > 100 µM
GI50 (HCC 2998): > 100 µM (inactive)
GI50 (U-251): > 100 µM (inactive)
GI50 (SW-620): > 100 µM (inactive)
GI50 (SF-268): > 100 µM (inactive)
GI50 (SK-MEL-2): > 100 µM (inactive)
GI50 (SK-OV-3): > 100 µM (inactive)
GI50 (SK-MEL-5): > 100 µM (inactive)

CC(C)(C)OC(=O)NC(Cc1c[nH]cn1)C(=O)N1CCCC1C(N)=O (stereo not given)
GI50 (NCI-H23): > 100 µM (inactive)
GI50 (EKVX): > 100 µM (inactive)
GI50 (KM12): > 100 µM (inactive)
GI50 (RPMI-8226): > 100 µM (inactive)
GI50 (MOLT-4): > 100 µM (inactive)
GI50 (CCRF-CEM): > 100 µM (inactive)
GI50 (IGROV-1): > 100 µM (inactive)
GI50 (NCI-H460): > 100 µM (inactive)
GI50 (Malme-3M): > 100 µM (inactive)
GI50 (SK-MEL-28): > 100 µM (inactive)
GI50 (K562): > 100 µM (inactive)
GI50 (OVCAR-8): > 100 µM (inactive)
GI50 (HCT-15): > 100 µM
GI50 (HCC 2998): > 100 µM (inactive)
GI50 (U-251): > 100 µM (inactive)
GI50 (SW-620): > 100 µM (inactive)
GI50 (SF-268): > 100 µM (inactive)
GI50 (SK-MEL-2): > 100 µM (inactive)
GI50 (SK-OV-3): > 100 µM (inactive)
GI50 (SK-MEL-5): > 100 µM (inactive)
